Measurements from ChEMBL document CHEMBL5143612, “Antibacterial activity evaluation of vinyl sulfones against global predominant methicillin-resistant Staphylococcus aureus USA300” (Bioorg Med Chem Lett, 2022).
Values after ≈ are worked out from the molar mass of the structure shown. Active and inactive are the calls of the source. The rule behind the calls is not given here.

Experiments:
Pseudomonas aeruginosa [1] = assay: Bactericidal activity against Pseudomonas aeruginosa assessed as inhibition of bacterial growth incubated for 18 to 20 hrs by CLSI based microdilution susceptibility analysis; type: functional; details: time 18-20 hrs
Staphylococcus aureus [2] = assay: Antibacterial activity against methicillin-susceptible Staphylococcus aureus ATCC 29213 assessed as inhibition of bacterial growth incubated for 18 to 20 hrs by CLSI based microdilution susceptibility analysis; type: functional; details: time 18-20 hrs
Pseudomonas aeruginosa [3] = assay: Antibacterial activity against Pseudomonas aeruginosa assessed as inhibition of bacterial growth incubated for 18 to 20 hrs by CLSI based microdilution susceptibility analysis; type: functional; details: time 18-20 hrs
Pseudomonas aeruginosa [4] = assay: Antibacterial activity against Pseudomonas aeruginosa assessed as inhibition of bacterial growth by measuring zone of inhibition at 30 ug incubated for 18 to 20 hrs by CLSI based disk diffusion analysis; type: functional; details: time 18-20 hrs, read-out: DIZ
Staphylococcus aureus [5] = assay: Bactericidal activity against community-associated methicillin-resistant Staphylococcus aureus USA300 SF8300 assessed as inhibition of bacterial growth incubated for 18 to 20 hrs by CLSI based microdilution susceptibility analysis; type: functional; details: time 18-20 hrs
Staphylococcus aureus [6] = assay: Inhibition of methicillin-susceptible Staphylococcus aureus ATCC 29213 bacterial cell adhesion to fibronectin at 0.1 mg/ml followed by compound addition on fibronectin precoated plate measured after 2 hrs by crystal violet dye based analysis; type: functional
Staphylococcus aureus [7] = assay: Antibacterial activity against methicillin-susceptible Staphylococcus aureus ATCC 25923 assessed as inhibition of bacterial growth by measuring zone of inhibition at 30 ug incubated for 18 to 20 hrs by CLSI based disk diffusion analysis; type: functional; details: time 18-20 hrs, read-out: DIZ
Staphylococcus aureus [8] = assay: Antibacterial activity against community-associated methicillin-resistant Staphylococcus aureus USA300 SF8300 assessed as inhibition of bacterial growth incubated for 18 to 20 hrs by CLSI based microdilution susceptibility analysis; type: functional; details: time 18-20 hrs
Staphylococcus aureus [9] = assay: Bactericidal activity against methicillin-susceptible Staphylococcus aureus ATCC 29213 assessed as inhibition of bacterial growth incubated for 18 to 20 hrs by CLSI based microdilution susceptibility analysis; type: functional; details: time 18-20 hrs
Staphylococcus aureus [10] = assay: Antibacterial activity against community-associated methicillin-resistant Staphylococcus aureus USA300 SF8300 assessed as inhibition of bacterial growth by measuring zone of inhibition at 30 ug incubated for 18 to 20 hrs by CLSI based disk diffusion analysis; type: functional; details: time 18-20 hrs, read-out: DIZ
Sortase A = biological target: T1, Sortase A (Staphylococcus aureus, UniProt Q9S446); assay: Inhibition of Staphylococcus aureus sortase A using Abz/Dnp fluorescent peptide as a substrate measured after 30 mins by fluorescent based analysis
T1 sequence (Q9S446 whole entry): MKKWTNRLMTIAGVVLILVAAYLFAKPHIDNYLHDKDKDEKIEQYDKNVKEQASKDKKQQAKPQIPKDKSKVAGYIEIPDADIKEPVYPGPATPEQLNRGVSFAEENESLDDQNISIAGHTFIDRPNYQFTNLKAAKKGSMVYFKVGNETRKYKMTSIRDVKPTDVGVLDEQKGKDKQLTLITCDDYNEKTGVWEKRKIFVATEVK

Albumin = Albumin (Homo sapiens, UniProt P02768); assay: Binding affinity to cysteine residue of human serum albumin assessed as conjugation of compound with protein at 1:1 compound to human serum albumin concentration incubated for 2 hr by LC-MS/MS analysis; type: cell-free
Albumin, sequence (P02768 whole entry): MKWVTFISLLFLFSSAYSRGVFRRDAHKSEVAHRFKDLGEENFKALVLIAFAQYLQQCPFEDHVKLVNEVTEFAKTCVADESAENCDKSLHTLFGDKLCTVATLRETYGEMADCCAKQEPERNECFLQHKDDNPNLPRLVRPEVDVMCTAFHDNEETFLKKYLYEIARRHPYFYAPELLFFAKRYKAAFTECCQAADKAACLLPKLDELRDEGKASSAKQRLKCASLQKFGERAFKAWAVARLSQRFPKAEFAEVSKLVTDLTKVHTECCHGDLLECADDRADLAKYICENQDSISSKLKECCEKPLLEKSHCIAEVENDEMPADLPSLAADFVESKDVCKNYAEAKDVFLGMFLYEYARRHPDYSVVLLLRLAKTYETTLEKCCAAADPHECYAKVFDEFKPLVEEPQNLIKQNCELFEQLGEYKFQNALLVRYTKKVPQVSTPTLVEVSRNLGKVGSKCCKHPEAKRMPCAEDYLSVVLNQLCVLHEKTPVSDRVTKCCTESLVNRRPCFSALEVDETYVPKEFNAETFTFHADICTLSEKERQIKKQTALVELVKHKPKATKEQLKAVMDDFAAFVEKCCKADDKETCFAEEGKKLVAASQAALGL

SMILES | MBC (Pseudomonas aeruginosa [1]) | MIC (Staphylococcus aureus [2]) | MIC (Pseudomonas aeruginosa [3]) | zone of inhibition at 30 µg/disc (Pseudomonas aeruginosa [4]) | MBC (Staphylococcus aureus [5]) | inhibition (Staphylococcus aureus [6]) | zone of inhibition at 30 µg/disc (Staphylococcus aureus [7]) | MIC (Staphylococcus aureus [8]) | MBC (Staphylococcus aureus [9]) | zone of inhibition at 30 µg/disc (Staphylococcus aureus [10]) | IC50 (Sortase A) | Activity (Albumin)
N#C/C=C/S(=O)(=O)c1ccc(Br)cc1 | > 120 µg/mL | 7.5 µg/mL (≈ 27.6 µM) | 120 µg/mL (≈ 441 µM) | 12.9 mm | 60 µg/mL (≈ 220 µM) | Active | 24.7 mm | 15 µg/mL (≈ 55.1 µM) | 15 µg/mL (≈ 55.1 µM) | 25.7 mm |  | 
N#C/C=C/S(=O)(=O)c1ccc([N+](=O)[O-])cc1 | 120 µg/mL (≈ 504 µM) | 30 µg/mL (≈ 126 µM) | 120 µg/mL (≈ 504 µM) | 13.1 mm |  | Active | 21.1 mm |  | 60 µg/mL (≈ 252 µM) | 6 mm |  | 
CCCCOC(=O)/C=C/S(=O)(=O)c1ccc(C)cc1 |  | 7.5 µg/mL (≈ 26.6 µM) |  | 6 mm | > 120 µg/mL |  | 13.9 mm | 60 µg/mL (≈ 212 µM) | 120 µg/mL (≈ 425 µM) | 15.1 mm |  | 
O=S(=O)(/C=C/CCCBr)c1ccc(Br)cc1 |  |  |  | 6 mm |  |  | 6 mm |  |  | 6 mm |  | 
COC(=O)/C=C/S(=O)(=O)c1ccc(C)cc1 | > 120 µg/mL | 7.5 µg/mL (≈ 31.2 µM) | > 120 µg/mL | 10.6 mm | 120 µg/mL (≈ 499 µM) |  | 20.6 mm | 15 µg/mL (≈ 62.4 µM) | 120 µg/mL (≈ 499 µM) | 18.7 mm |  | 
N#C/C=C/S(=O)(=O)c1ccccc1 | 60 µg/mL (≈ 311 µM) | 1.88 µg/mL (≈ 9.7 µM) | 60 µg/mL (≈ 311 µM) | 14.1 mm | 60 µg/mL (≈ 311 µM) | Active | 22.6 mm | 7.5 µg/mL (≈ 38.8 µM) | 30 µg/mL (≈ 155 µM) | 25.2 mm |  | 
C/C(=C\C#N)S(=O)(=O)c1ccc(C)cc1 |  | 60 µg/mL (≈ 271 µM) |  | 6 mm |  |  | 16.2 mm |  | 60 µg/mL (≈ 271 µM) | 6 mm |  | 
Cc1ccc(S(=O)(=O)C/C=C\Oc2ccccc2)cc1 |  |  |  | 6 mm |  |  | 6 mm |  |  | 6 mm |  | 
N#C/C=C\S(=O)(=O)c1ccccc1 | 120 µg/mL (≈ 621 µM) | 15 µg/mL (≈ 77.6 µM) | 60 µg/mL (≈ 311 µM) | 14.1 mm |  | Active | 22.3 mm |  | 30 µg/mL (≈ 155 µM) | 6 mm |  | 
COc1ccc(S(=O)(=O)/C=C/C#N)cc1 | > 120 µg/mL | 1.88 µg/mL (≈ 8.4 µM) | > 120 µg/mL | 13.3 mm | 30 µg/mL (≈ 134 µM) | Active | 26.9 mm | 3.75 µg/mL (≈ 16.8 µM) | 30 µg/mL (≈ 134 µM) | 25.9 mm |  | 
Cc1ccc(/C=C/S(=O)(=O)c2ccc(C)cc2)cc1 |  |  |  | 6 mm |  |  | 6 mm |  |  | 6 mm |  | 
Cc1ccc(S(=O)(=O)/C=C/C(=O)OC(C)(C)C)cc1 |  | 7.5 µg/mL (≈ 26.6 µM) |  | 6 mm | 60 µg/mL (≈ 212 µM) |  | 14.9 mm | 30 µg/mL (≈ 106 µM) | 120 µg/mL (≈ 425 µM) | 16.7 mm |  | 
N#C/C=C\S(=O)(=O)c1ccc(Cl)cc1 | 60 µg/mL (≈ 264 µM) | 7.5 µg/mL (≈ 32.9 µM) | 60 µg/mL (≈ 264 µM) | 16.3 mm |  | Active | 20 mm |  | 60 µg/mL (≈ 264 µM) | 6 mm |  | 
COc1ccc(S(=O)(=O)/C=C\C#N)cc1 | 120 µg/mL (≈ 538 µM) | 3.75 µg/mL (≈ 16.8 µM) | 120 µg/mL (≈ 538 µM) | 14.2 mm | 60 µg/mL (≈ 269 µM) | Active | 24.5 mm | 15 µg/mL (≈ 67.2 µM) | 60 µg/mL (≈ 269 µM) | 24.7 mm |  | 
Cc1ccc(S(=O)(=O)/C=C/c2ccc(Cl)cc2)cc1 |  |  |  | 6 mm |  |  | 6 mm |  |  | 6 mm |  | 
Cc1ccc(S(=O)(=O)/C=C/C(=O)O)cc1 |  | > 120 µg/mL |  | 6 mm |  |  | 9.94 mm |  | > 120 µg/mL | 6 mm |  | 
C/C(=C/C#N)S(=O)(=O)c1ccc(C)cc1 |  | 7.5 µg/mL (≈ 33.9 µM) |  | 6 mm | 15 µg/mL (≈ 67.8 µM) |  | 23.6 mm | 7.5 µg/mL (≈ 33.9 µM) | 7.5 µg/mL (≈ 33.9 µM) | 23.6 mm |  | 
N#C/C=C/S(=O)(=O)c1ccc(Cl)cc1 | 120 µg/mL (≈ 527 µM) | 1.88 µg/mL (≈ 8.24 µM) | 60 µg/mL (≈ 264 µM) | 13.9 mm | 60 µg/mL (≈ 264 µM) | Active | 22.8 mm | 7.5 µg/mL (≈ 32.9 µM) | 15 µg/mL (≈ 65.9 µM) | 25.5 mm |  | 
CCS(=O)(=O)c1ccc(C)cc1 |  |  |  | 6 mm |  |  | 6 mm |  |  | 6 mm |  | 
C/C(C#N)=C\S(=O)(=O)c1ccc(C)cc1 |  |  |  | 6 mm | 120 µg/mL (≈ 542 µM) |  | 6 mm | 30 µg/mL (≈ 136 µM) |  | 11.3 mm |  | 
N#C/C=C\S(=O)(=O)c1ccc(Br)cc1 | > 120 µg/mL | 30 µg/mL (≈ 110 µM) | 60 µg/mL (≈ 220 µM) | 13.8 mm | 120 µg/mL (≈ 441 µM) | Active | 22.6 mm | 60 µg/mL (≈ 220 µM) | 30 µg/mL (≈ 110 µM) | 23.4 mm |  | 
Cc1ccc(S(=O)(=O)/C=C/CCCBr)cc1 |  |  |  | 6 mm |  |  | 6 mm |  |  | 6 mm |  | 
COC(=O)/C(C)=C/S(=O)(=O)c1ccc(C)cc1 |  |  |  | 6 mm |  |  | 6 mm |  |  | 6 mm |  | 
Cc1ccc(S(=O)(=O)/C=C/C#N)cc1 | > 120 µg/mL | 1.88 µg/mL (≈ 9.05 µM) | 120 µg/mL (≈ 579 µM) | 12.9 mm | 60 µg/mL (≈ 289 µM) | Active | 28 mm | 7.5 µg/mL (≈ 36.2 µM) | 15 µg/mL (≈ 72.4 µM) | 27.7 mm | 129 µM | Active
Cc1ccc(S(=O)(=O)/C=C/C(N)=O)cc1 |  | 60 µg/mL (≈ 266 µM) |  | 6 mm |  |  | 22 mm |  | 60 µg/mL (≈ 266 µM) | 6 mm |  | 
Cc1ccc(S(=O)(=O)/C=C/Cc2ccccc2)cc1 |  |  |  | 6 mm |  |  | 6 mm |  |  | 6 mm |  | 
Cc1ccc(S(=O)(=O)/C=C/COCc2ccccc2)cc1 |  | > 120 µg/mL |  | 6 mm |  |  | 8.3 mm |  | > 120 µg/mL | 6 mm |  | 
O=[N+]([O-])c1ccc(S(=O)(=O)/C=C/CCCBr)cc1 |  |  |  | 6 mm |  |  | 6 mm |  |  | 6 mm |  | 
